Usually viability stands for a read-out of living cells in per cent, often relative to untreated cells.

Ends that are not written are not given here. Peptide text beside a SMILES is read from it.

What all share (assay type): cell-based
One data set has as its system mesenchymal stem cells. In words: Inhibitor assay: EV production after pretreatment with BAPTA-AM or ALLM. Particulars: TS-eEV production; cells pretreated with 50 μM BAPTA-AM 1 hour or 10 μM ALLM 18 hours. The protocol: The cells were pretreated with 50 μM BAPTA-AM (calcium-selective chelator) for 1 hour and with 10 μM ALLM (calpain inhibitor) for 18 hours. Comparison was made of EV production outputs among the method used, and the results are shown in FIGS. 14a and 14b and Table 15.

Data set [1] can be described thus: Viability of umbilical cord MSCs against eMTD peptide, absorbance analysis (ez-cytox, 450 nm; 'MTT assay'). The protocol: Mesenchymal stem cells derived from the umbilical cord (Wharton's jelly-derived MSCs, WJ-MSCs) were assayed for viability by treatment with the eMTD peptide at predetermined concentrations for predetermined periods of time. Tests were conducted with predetermined concentrations of the eMTD peptide. In this regard, umbilical cord-derived mesenchymal stem cells were seeded at a density of 2×10^4 cells/well into 24-well plates (30024, SPL). After 24 hours of incubation, the eMTD peptide in a sucrose buffer was applied at a final concentration of 0, 0.5, 1, 3, 5, 10, or 20 μM to the cells. The sucrose buffer contained glucose, sucrose, and 3-(N-morpholino)propanesulfonic acid [MOPS] at the respective concentrations shown in Table 2. After 15 minutes, the cells were incubated with ez-cytox (EZ-3000, DOGEN) for 30 to 60 minutes. Then, absorbance was read at 450 nm using a Bio-RAD x-Mark™ spectrophotometer (Bio-Rad Laboratories, USA). In addition, treatment with the eMTD peptide was conducted over various times. In this regard, umbilical cord-derived mesenchymal stem cells were seeded at a density of 2×10^4 cells/well into 24-well plates and incubated for 24 hours. Thereafter, the cells were treated with 1 μM of the eMTD peptide in the sucrose buffer for various periods of time (0, 5, 10, 15, 20, 25, or 30 minutes). After 15 minutes of treatment, the cells were incubated for 30 to 60 minutes with ez-cytox (EZ-3000, DOGEN). Absorbance was read at 450 nm using the Bio-RAD x-Mark™ spectrophotometer (Bio-Rad Laboratories, USA).
In general terms: Formazan colour is commonly taken as a measure of viable cells.

A short description of data set [2]: Viability of umbilical cord MSCs against eMTD peptide, cell counting with trypan blue (TB assay). The protocol:
To measure the number of cells, umbilical cord-derived mesenchymal stem cells were seeded at a density of 2.5×10^4 cells/well into 12-well plates (30012, SPL) and incubated for 24 hours. The eMTD peptide in the sucrose buffer of Table 2 was applied at a final concentration of 0, 0.5, 1.0, 3.0, 5.0, 10.0, or 20.0 μM to the cells. After 15 minutes, the cells were counted using a trypan blue solution. Separately, umbilical cord-derived mesenchymal stem cells were seeded at a density of 2.5×10^4 cells/well into 12-well plates (30012, SPL) and incubated for 24 hours. The cells were treated with the eMTD peptide in the sucrose buffer of Table 2 for various periods of time (0, 5, 10, 15, 20, 25, and 30 minutes). After each period, the cells were counted using a trypan blue solution, and the results are depicted in FIG. 2 and summarized in Tables 5 and 6.

With `CSCC[C@@H](C=O)NC(=O)[C@H](CC(C)C)NC(=O)[C@H](CC(C)C)NC(C)=O` [ALLM] (Ac-Leu-Leu-Met-aldehyde), the “EV production (particle number/cell)” value in the data set with mesenchymal stem cells is listed as 8.25 × 10^3 ± 9.96 × 10^2 particle number/cell.

For `CC(=O)OCOC(=O)CN(CC(=O)OCOC(C)=O)c1ccccc1OCCOc1ccccc1N(CC(=O)OCOC(C)=O)CC(=O)OCOC(C)=O` [BAPTA-AM], in the data set on mesenchymal stem cells, the “EV production (particle number/cell)” value is 7.34 × 10^3 ± 9.08 × 10^2 particle number/cell.

Take KLNFRQKLLNLISKLFCSGT [eMTD]: the viability at 5 min, 1 μM in data set [1] (MTT assay, 1 μM eMTD, time 5 min, read-out: Cell viability (%)) amounted to 52.7%. The viability at 10 min, 1 μM in data set [1] (MTT assay, 1 μM eMTD, time 10 min, read-out: Cell viability (%)) stood at 41.8%. Besides, the viability at 15 min, 1 μM in data set [1] (MTT assay, 1 μM eMTD, time 15 min, read-out: Cell viability (%)) amounted to 37%. For the same compound, the viability at 20 min, 1 μM in data set [1] (MTT assay, 1 μM eMTD, time 20 min, read-out: Cell viability (%)) worked out at 29.4%. Also, the viability at 25 min, 1 μM in data set [1] (MTT assay, 1 μM eMTD, time 25 min, read-out: Cell viability (%)) came out at 18.5%. In addition, the viability at 30 min, 1 μM in data set [1] (MTT assay, 1 μM eMTD, time 30 min, read-out: Cell viability (%)) was determined as 17.8%. Besides, the viability at 15 minutes, 0.5 μM came out at 53.9% in data set [1] (MTT assay, eMTD 0.5 μM, 15 minutes, read-out: Cell viability (%)) and 66.7% in data set [2] (umbilical cord-derived mesenchymal stem cells, TB assay, eMTD 0.5 μM, 15 minutes). The viability at 15 minutes, 1 μM is 57.4% in data set [1] (MTT assay, eMTD 1.0 μM, 15 minutes, read-out: Cell viability (%)); approximately 50% in data set [1] (cell viability); 66.3% in data set [2] (umbilical cord-derived mesenchymal stem cells, TB assay, eMTD 1.0 μM, 15 minutes). Also, the viability at 15 minutes, 3 μM worked out at 13.6% in data set [1] (MTT assay, eMTD 3.0 μM, 15 minutes, read-out: Cell viability (%)) and 21.9% in data set [2] (umbilical cord-derived mesenchymal stem cells, TB assay, eMTD 3.0 μM, 15 minutes). Moreover, the viability at 15 minutes, 5 μM came out at 5.8% in data set [1] (MTT assay, eMTD 5.0 μM, 15 minutes, read-out: Cell viability (%)) and 11.2% in data set [2] (umbilical cord-derived mesenchymal stem cells, TB assay, eMTD 5.0 μM, 15 minutes). In addition, the viability at 15 minutes, 10 μM in data set [1] (MTT assay, eMTD 10.0 μM, 15 minutes, read-out: Cell viability (%)) was determined as 2.9%; in data set [2] it was 0%. The viability at 15 minutes, 20 μM was determined as 4.1% in data set [1] (MTT assay, eMTD 20.0 μM, 15 minutes, read-out: Cell viability (%)) and 2.1% in data set [2] (umbilical cord-derived mesenchymal stem cells, TB assay, eMTD 20.0 μM, 15 minutes). Also, in data set [2] (umbilical cord-derived mesenchymal stem cells, TB assay, time 5 min), the viability at 5 min came out at 40%. The viability at 10 min in data set [2] (umbilical cord-derived mesenchymal stem cells, TB assay, time 10 min) was found to be 29.7%. Also, the viability at 15 min in data set [2] (umbilical cord-derived mesenchymal stem cells, TB assay, time 15 min) is 38.5%. The compound further displayed a viability at 20 min in data set [2] (umbilical cord-derived mesenchymal stem cells, TB assay, time 20 min) of 35.9%. The same compound had a viability at 25 min in data set [2] (umbilical cord-derived mesenchymal stem cells, TB assay, time 25 min) of 14.6%. Further, in data set [2] (umbilical cord-derived mesenchymal stem cells, TB assay, time 30 min), the viability at 30 min was determined as 15.6%.

For the origin of these results see patent US20240043797A1, “METHOD FOR MASS PRODUCTION OF HIGHLY PURE, STEM CELL-DERIVED EXTRACELLULAR VESICLE BY USING PEPTIDE” (INDUSTRY-ACADEMIC COOPERATION FOUNDATION, CHOSUN UNIVERSITY, priority 2020, published 2024).
